Measured values published in ChEMBL document CHEMBL4431298 (Medchemcomm, 2016).
Active and inactive are the calls of the source. No cut-off for these calls is given here.

Key:
Type in all cases: cell-based
Ferroportin [1] = target: T1, Ferroportin (Homo sapiens, UniProt Q9NP59); test: Inhibition of human GFP-tagged SLC40A1 expressed in HEK293 cells assessed as ferroportin internalization by fluorescence microscopic analysis
T1 sequence (Q9NP59 whole entry): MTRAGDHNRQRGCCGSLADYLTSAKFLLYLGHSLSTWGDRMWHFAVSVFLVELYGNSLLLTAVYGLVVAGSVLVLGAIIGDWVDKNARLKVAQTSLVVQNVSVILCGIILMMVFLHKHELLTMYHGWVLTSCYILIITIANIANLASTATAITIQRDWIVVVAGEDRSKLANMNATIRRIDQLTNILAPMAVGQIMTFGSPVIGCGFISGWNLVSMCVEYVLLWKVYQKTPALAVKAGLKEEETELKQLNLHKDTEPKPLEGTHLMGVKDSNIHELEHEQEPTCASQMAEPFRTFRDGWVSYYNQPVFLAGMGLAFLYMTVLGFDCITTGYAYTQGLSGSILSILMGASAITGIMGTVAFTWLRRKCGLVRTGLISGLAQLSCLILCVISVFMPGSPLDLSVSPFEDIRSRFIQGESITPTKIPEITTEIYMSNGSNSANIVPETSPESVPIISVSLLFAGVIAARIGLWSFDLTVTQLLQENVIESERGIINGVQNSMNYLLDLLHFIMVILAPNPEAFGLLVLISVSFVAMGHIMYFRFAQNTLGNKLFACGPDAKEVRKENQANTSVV

[2] = target: T2, Ferroportin (Homo sapiens) (UniProt Q9NP59); test: (§1) Inhibition of recombinant human SLC40A1 expressed in human T-REx-293 cells assessed as reduction in ferroportin internalization incubated for 20 hrs by luciferase reporter gene assay
T2 sequence (whole entry): T1 sequence (Q9NP59 whole entry)

Ferroportin [3] = target: T1, Ferroportin; test: as §1
[4] = target: T2, Ferroportin (Homo sapiens); test: (§2) Inhibition of recombinant human C-terminal nano luciferase-tagged SLC40A1 expressed in human T-REx-293 cells assessed as ferroportin internalization incubated for 20 hrs measured at 459 nanometer by Hoechst staining based cellomics arrayscan imaging analysis
Ferroportin [5] = target: T1, Ferroportin; test: as §2
[6] = target: T2, Ferroportin (Homo sapiens); test: Binding affinity to recombinant human C-terminal nano luciferase-tagged SLC40A1 expressed in human T-REx-293 cells assessed as internalization of compound-ferroportin conjugate at 0.0001 to 0.01 mg/ml incubated for 20 hrs measured at 549 nanometer by Hoechst staining based cellomics arrayscan imaging analysis
[7] = target: T2, Ferroportin (Homo sapiens); test: Inhibition of recombinant human C-terminal nano luciferase-tagged SLC40A1 expressed in human T-REx-293 cells assessed as decrease in 55Fe-apotransferrin export at 10 uM preincubated for 24 hrs followed by export buffer and compound addition measured after 5 mins by scintillation counting method
[8] = target: T2, Ferroportin (Homo sapiens); test: Inhibition of recombinant human SLC40A1 expressed in human T-REx-293 cells exposed to 4 hrs of doxycycline induction assessed as reduction in ferroportin internalization incubated for 20 hrs by luciferase reporter gene assay relative to control; details: concentration not given here
[9] = target: T2, Ferroportin (Homo sapiens); test: Inhibition of recombinant human SLC40A1 expressed in human T-REx-293 cells exposed to >4 hrs of doxycycline induction assessed as reduction in ferroportin internalization incubated for 20 hrs by luciferase reporter gene assay relative to control; details: concentration not given here

Work on `CC[C@H](C)[C@H](NC(=O)[C@H](CS)NC(=O)[C@@H](NC(=O)[C@@H]1CCCN1C(=O)[C@H](Cc1ccccc1)NC(=O)[C@H](Cc1cnc[nH]1)NC(=O)[C@@H](NC(=O)[C@H](CC(=O)O)NC(C)=O)[C@@H](C)O)[C@@H](C)CC)C(=O)N[C@@H](Cc1ccccc1)C(=O)O` yielded an IC50 (Ferroportin [1]) of 76 nM.
In the case of `CCCCCCCCCCCCCCCC(=O)NCCCOCCOCCOCCCNC(=O)C[C@H](Cc1ccccc1)NC(=O)[C@H](CCCNC(=N)N)NC(=O)[C@@H](CS)NC(=O)[C@H](CCCNC(=N)N)NC(=O)C[C@@H]1CCCN1C(=O)[C@@H](NC(=O)[C@H](Cc1c[nH]cn1)NC(=O)[C@@H](NC(=O)CNCC(=O)O)[C@@H](C)O)C(c1ccccc1)c1ccccc1`, the inhibition [2] is reported as “Dose-dependent effect”.
With `CCCCCCCCCCCCCCCC(=O)NCCCOCCOCCOCCCNC(=O)C[C@H](Cc1ccccc1)NC(=O)[C@H](CCCNC(=N)N)NC(=O)[C@H](CS)NC(=O)[C@H](CCCNC(=N)N)NC(=O)C[C@@H]1CCCN1C(=O)[C@@H](NC(=O)[C@H](Cc1c[nH]cn1)NC(=O)[C@@H](NC(=O)CNCC(=O)O)[C@@H](C)O)C(c1ccccc1)c1ccccc1` the EC50 (Ferroportin [3]) was 21 nM.
`CC[C@H](C)[C@@H]1NC(=O)[C@@H](NC(=O)[C@@H](NC(=O)[C@@H]2CCCN2C(=O)[C@H](Cc2ccccc2)NC(=O)[C@H](Cc2c[nH]cn2)NC(=O)[C@@H](NC(=O)[C@@H](N)CC(=O)O)[C@@H](C)O)[C@@H](C)CC)CSSC[C@@H](C(=O)N[C@@H](CCCCN)C(=O)N[C@H](C(=O)O)[C@@H](C)O)NC(=O)[C@@H]2CSSC[C@@H]3NC(=O)[C@@H]4CSSC[C@H](NC(=O)[C@H](Cc5ccccc5)NC1=O)C(=O)N[C@@H](CSSC[C@H](NC(=O)[C@H](CCCCN)NC(=O)[C@H](CO)NC(=O)[C@H](CCCNC(=N)N)NC(=O)[C@H](Cc1c[nH]cn1)NC3=O)C(=O)NCC(=O)N[C@@H](CCSC)C(=O)N2)C(=O)NCC(=O)N4` showed an EC50 (Ferroportin [3]) of 22 nM.
For `CC[C@H](C)[C@H](NC(=O)[C@H](CS)NC(=O)[C@@H](NC(=O)[C@@H]1CCCN1C(=O)[C@H](Cc1ccccc1)NC(=O)[C@H](Cc1c[nH]cn1)NC(=O)[C@@H](NC(=O)[C@H](CC(=O)O)NC(C)=O)[C@@H](C)O)[C@@H](C)CC)C(=O)N[C@@H](Cc1ccccc1)C(=O)NCCOCCOCCOCC(=O)N[C@H](CCCNC(=N)N)C(=O)N[C@H](CCCNC(=N)N)C(=O)N[C@H](CCCCNC(=O)CCCCCNC(=O)CCC1=C(C)C2=Cc3ccc(-c4ccc(OC)cc4)n3[B-](F)(F)[N+]2=C1C)C(=O)O`, the inhibition [2] was “Dose-dependent effect”, the EC50 (Ferroportin [3]) was 347 nM and the inhibition [4] was “Dose-dependent effect”. The EC50 (Ferroportin [5]) was 1860 nM and the Activity [6] was “Active”.
With `CC[C@H](C)[C@@H]1NC(=O)[C@H](NC(=O)[C@@H](NC(=O)[C@@H]2CCCN2C(=O)[C@H](Cc2ccccc2)NC(=O)[C@H](Cc2cnc[nH]2)NC(=O)[C@@H](NC(=O)[C@@H](N)CC(=O)O)[C@@H](C)O)[C@@H](C)CC)CSSC[C@@H](C(=O)N[C@@H](CCCCN)C(=O)N[C@H](C(=O)O)[C@@H](C)O)NC(=O)[C@@H]2CSSC[C@@H]3NC(=O)[C@@H]4CSSC[C@H](NC(=O)[C@H](Cc5ccccc5)NC1=O)C(=O)N[C@@H](CSSC[C@H](NC(=O)[C@H](CCCCN)NC(=O)[C@H](CO)NC(=O)[C@H](CCCNC(=N)N)NC(=O)[C@H](Cc1cnc[nH]1)NC3=O)C(=O)NCC(=O)N[C@@H](CCSC)C(=O)N2)C(=O)NCC(=O)N4` the inhibition [7] was “Active”, the inhibition [2] was “Dose-dependent effect” and the inhibition [8] was 50%. For the same compound, the inhibition [9] was 25%.
